According to ChEMBL document CHEMBL4316596, “Antimicrobial Peptides with High Proteolytic Resistance for Combating Gram-Negative Bacteria” (J Med Chem, 2019):
Values after ≈ are worked out from the molar mass of the structure shown. Positions of bridges follow the written chain, without caps; N, C: chain ends. Non-standard residues stand in square brackets, D forms with d. Residues, ends and D or L forms follow the SMILES beside them. *: point of attachment. X1 = CC[C@H](C)CCCCC(=O)*; Dab = NCC[C@H](N)C(=O)O

Tests used:
Salmonella typhimurium [1] = assay: Antimicrobial activity against Salmonella typhimurium ATCC 14028 after 24 hrs by NCCLS-protocol based assay; assay type: functional, Salmonella enterica subsp. enterica serovar Typhimurium; settings: Salmonella enterica, ATCC 14028, 24 h
Escherichia coli [2] = assay: Antimicrobial activity against Escherichia coli UB1005 after 24 hrs by NCCLS-protocol based assay; assay type: functional; settings: UB1005, 24 h
Escherichia coli [3] = assay: Bactericidal activity against Escherichia coli UB1005 incubated for 4 hrs followed by culture spread on agar plates and cultured overnight; assay type: functional; settings: UB1005, 4 h, read-out: MBC>99.9
Pseudomonas aeruginosa [4] = assay: Bactericidal activity against Pseudomonas aeruginosa 25349 clinical isolates incubated for 4 hrs followed by culture spread on agar plates and cultured overnight; assay type: functional; settings: Pseudomonas aeruginosa, 25349, 4 h; read-out: MBC>99.9
Klebsiella pneumoniae [5] = assay: Antimicrobial activity against Klebsiella pneumoniae after 24 hrs by NCCLS-protocol based assay; assay type: functional
Acinetobacter baumannii [6] = assay: Bactericidal activity against Acinetobacter baumannii incubated for 4 hrs followed by culture spread on agar plates and cultured overnight; assay type: functional; settings: read-out: MBC>99.9
Escherichia coli [7] = assay: Bactericidal activity against Escherichia coli K99 incubated for 4 hrs followed by culture spread on agar plates and cultured overnight; assay type: functional; settings: K99, 4 h, read-out: MBC>99.9
Escherichia coli [8] = assay: Antimicrobial activity against Escherichia coli ATCC 25922 after 24 hrs by NCCLS-protocol based assay; assay type: functional; settings: ATCC 25922, 24 h
Escherichia coli [9] = assay: Bactericidal activity against Escherichia coli 078 incubated for 4 hrs followed by culture spread on agar plates and cultured overnight; assay type: functional; settings: Escherichia coli, 078, 4 h; read-out: MBC>99.9
[10] = Antimicrobial activity against Salmonella pullorum C7913 after 24 hrs by NCCLS-protocol based assay; assay type: functional, Salmonella enterica subsp. enterica serovar Pullorum; settings: Salmonella enterica, C7913, 24 h
Escherichia coli [11] = assay: Bactericidal activity against Escherichia coli K88 incubated for 4 hrs followed by culture spread on agar plates and cultured overnight; assay type: functional; settings: K88, 4 h, read-out: MBC>99.9
Pseudomonas aeruginosa [12] = assay: Bactericidal activity against Pseudomonas aeruginosa 26305 clinical isolates incubated for 4 hrs followed by culture spread on agar plates and cultured overnight; assay type: functional; settings: Pseudomonas aeruginosa, 26305, 4 h; read-out: MBC>99.9
Klebsiella pneumoniae [13] = assay: Bactericidal activity against Klebsiella pneumoniae incubated for 4 hrs followed by culture spread on agar plates and cultured overnight; assay type: functional; settings: read-out: MBC>99.9
Escherichia coli [14] = assay: Antimicrobial activity against Escherichia coli K88 after 24 hrs by NCCLS-protocol based assay; assay type: functional; settings: K88, 24 h
Acinetobacter baumannii [15] = assay: Antimicrobial activity against Acinetobacter baumannii after 24 hrs by NCCLS-protocol based assay; assay type: functional
Pseudomonas aeruginosa [16] = assay: Bactericidal activity against Pseudomonas aeruginosa CICC 21630 clinical isolates incubated for 4 hrs followed by culture spread on agar plates and cultured overnight; assay type: functional; settings: CICC 21630, 4 h, read-out: MBC>99.9
Pseudomonas aeruginosa [17] = assay: Antimicrobial activity against Pseudomonas aeruginosa ATCC 27853 after 24 hrs by NCCLS-protocol based assay; assay type: functional; settings: ATCC 27853, 24 h
Pseudomonas aeruginosa [18] = assay: Bactericidal activity against Pseudomonas aeruginosa ATCC 27853 incubated for 4 hrs followed by culture spread on agar plates and cultured overnight; assay type: functional; settings: ATCC 27853, 4 h, read-out: MBC>99.9
Pseudomonas aeruginosa [19] = assay: Antimicrobial activity against Pseudomonas aeruginosa 26305 clinical isolates after 24 hrs by NCCLS-protocol based assay; assay type: functional; settings: Pseudomonas aeruginosa, 26305, 24 h
Pseudomonas aeruginosa [20] = assay: Bactericidal activity against Pseudomonas aeruginosa CICC 21625 clinical isolates incubated for 4 hrs followed by culture spread on agar plates and cultured overnight; assay type: functional; settings: CICC 21625, 4 h, read-out: MBC>99.9
Salmonella typhimurium [21] = assay: Antimicrobial activity against Salmonella typhimurium C7731 after 24 hrs by NCCLS-protocol based assay; assay type: functional, Salmonella enterica subsp. enterica serovar Typhimurium; settings: Salmonella enterica, C7731, 24 h
Pseudomonas aeruginosa [22] = assay: Antimicrobial activity against Pseudomonas aeruginosa PAO1 after 24 hrs by NCCLS-protocol based assay; assay type: functional; settings: PAO1, 24 h
Salmonella typhimurium [23] = assay: Bactericidal activity against Salmonella typhimurium ATCC 14028 incubated for 4 hrs followed by culture spread on agar plates and cultured overnight; assay type: functional, Salmonella enterica subsp. enterica serovar Typhimurium; settings: Salmonella enterica, ATCC 14028, 4 h; read-out: MBC>99.9
Escherichia coli [24] = assay: Antimicrobial activity against Escherichia coli 078 after 24 hrs by NCCLS-protocol based assay; assay type: functional; settings: Escherichia coli, 078, 24 h
Salmonella typhimurium [25] = assay: Bactericidal activity against Salmonella typhimurium C7731 incubated for 4 hrs followed by culture spread on agar plates and cultured overnight; assay type: functional, Salmonella enterica subsp. enterica serovar Typhimurium; settings: Salmonella enterica, C7731, 4 h; read-out: MBC>99.9
Pseudomonas aeruginosa [26] = assay: Bactericidal activity against Pseudomonas aeruginosa PAO1 incubated for 4 hrs followed by culture spread on agar plates and cultured overnight; assay type: functional; settings: PAO1, 4 h, read-out: MBC>99.9
Pseudomonas aeruginosa [27] = assay: Antimicrobial activity against Pseudomonas aeruginosa CICC 21630 clinical isolates after 24 hrs by NCCLS-protocol based assay; assay type: functional; settings: CICC 21630, 24 h
Pseudomonas aeruginosa [28] = assay: Antimicrobial activity against Pseudomonas aeruginosa CICC 21625 clinical isolates after 24 hrs by NCCLS-protocol based assay; assay type: functional; settings: CICC 21625, 24 h
Pseudomonas aeruginosa [29] = assay: Antimicrobial activity against Pseudomonas aeruginosa 25349 clinical isolates after 24 hrs by NCCLS-protocol based assay; assay type: functional; settings: Pseudomonas aeruginosa, 25349, 24 h
Escherichia coli [30] = assay: Bactericidal activity against Escherichia coli ATCC 25922 incubated for 4 hrs followed by culture spread on agar plates and cultured overnight; assay type: functional; settings: ATCC 25922, 4 h, read-out: MBC>99.9
Escherichia coli [31] = assay: Antimicrobial activity against Escherichia coli K99 after 24 hrs by NCCLS-protocol based assay; assay type: functional; settings: K99, 24 h
[32] = Bactericidal activity against Salmonella pullorum C7913 incubated for 4 hrs followed by culture spread on agar plates and cultured overnight; assay type: functional, Salmonella enterica subsp. enterica serovar Pullorum; settings: Salmonella enterica, C7913, 4 h; read-out: MBC>99.9

Compound | MIC95 (Salmonella typhimurium [1]) [µM] | MIC95 (Escherichia coli [2]) [µM] | MBC (Escherichia coli [3]) [µM] | MBC (Pseudomonas aeruginosa [4]) [µM] | MIC95 (Klebsiella pneumoniae [5]) [µM] | MBC (Acinetobacter baumannii [6]) [µM] | MBC (Escherichia coli [7]) [µM] | MIC95 (Escherichia coli [8]) [µM] | MBC (Escherichia coli [9]) [µM] | MIC95 [10] [µM] | MBC (Escherichia coli [11]) [µM] | MBC (Pseudomonas aeruginosa [12]) [µM] | MBC (Klebsiella pneumoniae [13]) [µM] | MIC95 (Escherichia coli [14]) [µM] | MIC95 (Acinetobacter baumannii [15]) [µM] | MBC (Pseudomonas aeruginosa [16]) [µM] | MIC95 (Pseudomonas aeruginosa [17]) [µM] | MBC (Pseudomonas aeruginosa [18]) [µM] | MIC95 (Pseudomonas aeruginosa [19]) [µM] | MBC (Pseudomonas aeruginosa [20]) [µM] | further results
H-VRPVVRPVVRPVVRPVVRPVVRPVVRPV-NH2 | 8 | 8 | 8 | > 64 | 32 | 4 | 32 | 8 | 16 | 4 | 32 | > 64 | 64 | 8 | 4 | > 64 | > 64 | > 64 | > 64 | > 64 | MIC95 (Salmonella typhimurium [21]): 16 µM; MIC95 (Pseudomonas aeruginosa [22]): > 64 µM; MBC (Salmonella typhimurium [23]): 16 µM; MIC95 (Escherichia coli [24]): 8 µM; MBC (Salmonella typhimurium [25]): 32 µM; MBC (Pseudomonas aeruginosa [26]): > 64 µM; MIC95 (Pseudomonas aeruginosa [27]): > 64 µM; MIC95 (Pseudomonas aeruginosa [28]): > 64 µM; MIC95 (Pseudomonas aeruginosa [29]): > 64 µM; MBC (Escherichia coli [30]): 16 µM; MIC95 (Escherichia coli [31]): 16 µM; MBC [32]: 8 µM
CC[C@H](C)CCCCC(=O)N[C@@H](CCN)C(=O)N[C@H](C(=O)N[C@@H](CCN)C(=O)N[C@H]1CCNC(=O)[C@H]([C@@H](C)O)NC(=O)[C@H](CCN)NC(=O)[C@H](CCN)NC(=O)[C@H](CC(C)C)NC(=O)[C@@H](Cc2ccccc2)NC(=O)[C@H](CCN)NC1=O)[C@@H](C)O (X1-[Dab]T[Dab][Dab][Dab][dF]L[Dab][Dab]T; lactam 4-C) | 2 (≈ 2.41 µg/mL) | 0.5 (≈ 0.602 µg/mL) | 1 (≈ 1.2 µg/mL) | 4 (≈ 4.81 µg/mL) | 4 (≈ 4.81 µg/mL) | 0.25 (≈ 0.301 µg/mL) | 2 (≈ 2.41 µg/mL) | 1 (≈ 1.2 µg/mL) | 2 (≈ 2.41 µg/mL) | 0.5 (≈ 0.602 µg/mL) | 1 (≈ 1.2 µg/mL) | 4 (≈ 4.81 µg/mL) | 8 (≈ 9.63 µg/mL) | 0.5 (≈ 0.602 µg/mL) | 0.25 (≈ 0.301 µg/mL) | 8 (≈ 9.63 µg/mL) | 2 (≈ 2.41 µg/mL) | 2 (≈ 2.41 µg/mL) | 4 (≈ 4.81 µg/mL) | 8 (≈ 9.63 µg/mL) | MIC95 (Salmonella typhimurium [21]): 2 µM (≈ 2.41 µg/mL); MIC95 (Pseudomonas aeruginosa [22]): 16 µM (≈ 19.3 µg/mL); MBC (Salmonella typhimurium [23]): 4 µM (≈ 4.81 µg/mL); MIC95 (Escherichia coli [24]): 1 µM (≈ 1.2 µg/mL); MBC (Salmonella typhimurium [25]): 4 µM (≈ 4.81 µg/mL); MBC (Pseudomonas aeruginosa [26]): 32 µM (≈ 38.5 µg/mL); MIC95 (Pseudomonas aeruginosa [27]): 4 µM (≈ 4.81 µg/mL); MIC95 (Pseudomonas aeruginosa [28]): 4 µM (≈ 4.81 µg/mL); MIC95 (Pseudomonas aeruginosa [29]): 2 µM (≈ 2.41 µg/mL); MBC (Escherichia coli [30]): 2 µM (≈ 2.41 µg/mL); MIC95 (Escherichia coli [31]): 2 µM (≈ 2.41 µg/mL); MBC [32]: 1 µM (≈ 1.2 µg/mL)
